Measured values published in ChEMBL document CHEMBL5579839, “Discovery of new cyclopropane sulfonamide derivatives as EGFR inhibitors to overcome C797S-mediated resistance and EGFR double mutation” (Eur J Med Chem, 2024).
Activity calls are given as the source filed them. The rule behind the calls is not given here.

How the values were obtained:
BaF3 [1] = assay: Induction of apoptosis in mouse BaF3 cells harboring EGFR L858R/T790M/C797S mutant assessed as late apoptotic cells at 10 nM incubated for 24 hrs by Annexin V-FITC/PI staining based flow cytometry (reference value: 0.02 %); assay type: functional
BaF3 [2] = assay: Antiproliferative activity against mouse BaF3 cells harboring EGFR L858R/T790M/C797S mutant assessed as inhibition of sphere formation incubated for 72 hrs by CCK8 assay; assay type: functional, cell-based; settings: BaF3, 72 h
[3] = target: Epidermal growth factor receptor (Homo sapiens, UniProt P00533, L858R/T790M); assay: Inhibition of EGFR T790M/L858R mutant (unknown origin)
Chain of Epidermal growth factor receptor (Homo sapiens, UniProt P00533, L858R/T790M) (P00533 25-1210 T790M/L858R limits assumed): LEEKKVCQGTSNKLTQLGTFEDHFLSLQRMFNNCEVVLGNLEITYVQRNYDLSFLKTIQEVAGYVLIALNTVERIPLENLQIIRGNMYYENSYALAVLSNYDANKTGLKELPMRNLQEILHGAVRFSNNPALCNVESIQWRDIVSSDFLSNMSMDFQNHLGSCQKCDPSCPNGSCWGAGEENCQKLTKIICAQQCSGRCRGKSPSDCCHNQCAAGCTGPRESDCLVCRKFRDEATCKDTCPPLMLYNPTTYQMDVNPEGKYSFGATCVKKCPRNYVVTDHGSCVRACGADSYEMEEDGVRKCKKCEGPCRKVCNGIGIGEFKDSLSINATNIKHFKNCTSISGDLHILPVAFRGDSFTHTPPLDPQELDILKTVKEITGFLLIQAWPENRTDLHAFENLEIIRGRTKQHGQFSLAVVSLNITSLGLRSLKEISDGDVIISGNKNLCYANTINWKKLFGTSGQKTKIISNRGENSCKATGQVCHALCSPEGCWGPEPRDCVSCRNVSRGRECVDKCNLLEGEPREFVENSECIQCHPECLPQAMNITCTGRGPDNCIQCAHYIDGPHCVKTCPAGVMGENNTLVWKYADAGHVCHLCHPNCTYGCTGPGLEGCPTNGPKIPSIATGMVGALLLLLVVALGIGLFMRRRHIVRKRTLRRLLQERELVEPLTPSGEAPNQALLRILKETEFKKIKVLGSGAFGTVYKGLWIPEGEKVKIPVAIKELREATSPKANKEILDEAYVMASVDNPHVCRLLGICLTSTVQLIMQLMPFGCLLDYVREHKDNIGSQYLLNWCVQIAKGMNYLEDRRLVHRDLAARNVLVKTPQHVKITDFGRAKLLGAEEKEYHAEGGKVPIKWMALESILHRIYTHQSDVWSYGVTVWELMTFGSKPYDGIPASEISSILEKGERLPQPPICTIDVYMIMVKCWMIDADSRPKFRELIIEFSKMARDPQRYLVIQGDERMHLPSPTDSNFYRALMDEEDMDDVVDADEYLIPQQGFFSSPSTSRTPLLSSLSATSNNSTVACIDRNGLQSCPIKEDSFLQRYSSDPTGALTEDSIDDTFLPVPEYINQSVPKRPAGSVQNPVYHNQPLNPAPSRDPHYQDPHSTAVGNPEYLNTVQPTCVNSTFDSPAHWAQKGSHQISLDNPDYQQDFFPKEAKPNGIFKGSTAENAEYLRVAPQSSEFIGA

BaF3 [4] = assay: Inhibition of fibronectin activation in mouse BaF3 cells allografted in nude mouse at 50 mg/kg, po for 7 days; assay type: functional, organism-based; settings: time 7.0 day
[5] = Toxicity in nude mouse allografted with mouse BaF3 cells assessed as animal abnormality at 50 mg/kg, po measured for 7 days; assay type: organism-based; settings: in vivo, 168 h, time 7 day
BaF3 [6] = assay: Antitumor activity against mouse BaF3 cells allografted in nude mouse assessed as reduction of tumor weight at 50 mg/kg, po measured for 7 days; assay type: functional, organism-based; settings: time 7.0 day
NCI-H1975 [7] = assay: Induction of apoptosis in human NCI-H1975 cells assessed as early apoptotic cells at 10 nM incubated for 24 hrs by Annexin V-FITC/PI staining based flow cytometry (reference value: 2.18 %); assay type: functional
[8] = Toxicity in nude mouse allografted with mouse BaF3 cells assessed as damage in spleen at 50 mg/kg, po for 7 days by H and E staining based analysis; assay type: organism-based; settings: in vivo, 168 h, time 7 day
[9] = Toxicity in nude mouse xenografted with human NCI-H1975 cells assessed as body weight loss at 50 mg/kg, po measured for 7 days; assay type: organism-based; settings: in vivo, 168 h, time 7 day
[10] = Toxicity in nude mouse allografted with mouse BaF3 cells assessed as damage in liver at 50 mg/kg, po for 7 days by H and E staining based analysis; assay type: organism-based; settings: in vivo, 168 h, time 7 day
[11] = target: T1, Epidermal growth factor receptor (Homo sapiens, UniProt P00533); assay: Inhibition of EGFR phosphorylation in human NCI-H1975 cells assessed as reduction in red fluorescence incubated for 24 hrs by immunofluorescence analysis; assay type: cell-based
T1 sequence (P00533 whole entry): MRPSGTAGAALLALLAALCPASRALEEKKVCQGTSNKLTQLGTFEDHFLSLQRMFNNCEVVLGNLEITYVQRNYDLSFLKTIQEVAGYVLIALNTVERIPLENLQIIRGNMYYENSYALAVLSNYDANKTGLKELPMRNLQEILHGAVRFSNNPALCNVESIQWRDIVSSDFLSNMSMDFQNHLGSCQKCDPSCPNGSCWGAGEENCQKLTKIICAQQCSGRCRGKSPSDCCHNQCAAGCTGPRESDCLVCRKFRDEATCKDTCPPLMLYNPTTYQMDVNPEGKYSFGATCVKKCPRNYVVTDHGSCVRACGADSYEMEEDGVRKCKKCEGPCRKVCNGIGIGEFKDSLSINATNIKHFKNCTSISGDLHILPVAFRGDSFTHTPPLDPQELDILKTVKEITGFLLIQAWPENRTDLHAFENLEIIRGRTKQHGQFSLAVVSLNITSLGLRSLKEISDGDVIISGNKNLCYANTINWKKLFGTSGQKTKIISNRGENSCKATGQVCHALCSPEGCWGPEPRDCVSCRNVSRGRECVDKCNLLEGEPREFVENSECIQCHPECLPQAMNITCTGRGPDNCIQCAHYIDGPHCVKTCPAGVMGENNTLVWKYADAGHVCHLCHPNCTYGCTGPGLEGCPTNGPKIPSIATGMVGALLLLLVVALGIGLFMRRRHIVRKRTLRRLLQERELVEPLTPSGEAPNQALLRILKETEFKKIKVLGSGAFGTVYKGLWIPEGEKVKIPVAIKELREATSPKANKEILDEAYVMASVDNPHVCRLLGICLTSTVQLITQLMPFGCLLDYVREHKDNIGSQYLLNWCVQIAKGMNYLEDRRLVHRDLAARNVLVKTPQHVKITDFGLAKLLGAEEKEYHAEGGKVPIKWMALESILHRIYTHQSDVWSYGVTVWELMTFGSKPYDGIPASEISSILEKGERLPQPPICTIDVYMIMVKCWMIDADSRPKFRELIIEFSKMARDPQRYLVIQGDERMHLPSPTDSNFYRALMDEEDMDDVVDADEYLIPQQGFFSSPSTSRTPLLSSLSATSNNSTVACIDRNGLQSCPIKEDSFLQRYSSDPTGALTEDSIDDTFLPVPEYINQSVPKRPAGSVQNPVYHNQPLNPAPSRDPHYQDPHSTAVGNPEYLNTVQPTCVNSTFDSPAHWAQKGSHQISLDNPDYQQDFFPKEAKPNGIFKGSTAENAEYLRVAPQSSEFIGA

[12] = Toxicity in nude mouse allografted with mouse BaF3 cells assessed as lesion in heart at 50 mg/kg, po for 7 days by H and E staining based analysis; assay type: organism-based; settings: in vivo, 168 h, time 7 day
NCI-H1975 [13] = assay: Induction of apoptosis in human NCI-H1975 cells assessed as necrotic cells at 10 nM incubated for 24 hrs by Annexin V-FITC/PI staining based flow cytometry (reference value: 2.89 %); assay type: functional
NCI-H1975 [14] = assay: Inhibition of cell migration in human NCI-H1975 cells by transwell assay; assay type: functional, cell-based
[15] = target: T1, Epidermal growth factor receptor; assay: Inhibition of wild-type EGFR (unknown origin)
BaF3 [16] = assay: Induction of cell death in inner region of cell spheres of mouse BaF3 cells harboring EGFR L858R/T790M/C797S mutant at 10 nM by Calcein AM/PI staining based analysis; assay type: functional
BaF3 [17] = assay: Induction of cell death in outer layer of cell spheres of mouse BaF3 cells harboring EGFR L858R/T790M/C797S mutant at 1 nM by Calcein AM/PI staining based analysis; assay type: functional
BaF3 [18] = assay: Induction of apoptosis in mouse BaF3 cells harboring EGFR L858R/T790M/C797S mutant assessed as increase in green fluorescence at 10 to 25 nM by TUNNEL method; assay type: functional, cell-based; settings: dose 10-25 nM
[19] = Toxicity in nude mouse allografted with mouse BaF3 cells assessed as lesion in kidney at 50 mg/kg, po for 7 days by H and E staining based analysis; assay type: organism-based; settings: in vivo, 168 h, time 7 day
[20] = Cytotoxicity against human HUVEC cells; assay type: toxicity, cell-based
[21] = target: Epidermal growth factor receptor (Homo sapiens, UniProt P00533, C797S/EX19DEL/T790M); assay: Inhibition of EGFR C797S/T790M/Del19 mutant (unknown origin)
Chain of Epidermal growth factor receptor (Homo sapiens, UniProt P00533, C797S/EX19DEL/T790M) (P00533 whole entry, looked up, stated change not applied): as the sequence (P00533 whole entry) above

NCI-H1975 [22] = assay: Inhibition of colony formation in human NCI-H1975 cells at 5 to 10 nM by crystal violet staining based analysis; assay type: functional, cell-based; settings: dose 5-10 nM
BaF3 [23] = assay: Inhibition of EGFR L858R/T790M/C797S mutant in mouse BaF3 cells assessed as reduction in ERK phosphorylation incubated for 24 hrs by Western blot analysis; assay type: cell-based; settings: dose <= 100.0 nM
BaF3 [24] = assay: Induction of apoptosis in mouse BaF3 cells harboring EGFR L858R/T790M/C797S mutant assessed as necrotic cells at 10 nM incubated for 24 hrs by Annexin V-FITC/PI staining based flow cytometry (reference value: 0.06 %); assay type: functional
BaF3 [25] = assay: Antiproliferative activity against mouse BaF3 cells harboring EGFR C797S/L858R/T790M mutant; assay type: functional, cell-based
[26] = target: Vascular endothelial growth factor receptor 2 (Homo sapiens) (UniProt P35968); assay: Binding affinity to KDR (unknown origin) at 100 nM by kinase profiling analysis
Homo sapiens = organism: Homo sapiens; assay: Binding affinity to FGFR (unknown origin) at 100 nM by kinase profiling analysis
NCI-H1975 [27] = assay: Induction of apoptosis in human NCI-H1975 cells assessed as late apoptotic cells at 10 nM incubated for 24 hrs by Annexin V-FITC/PI staining based flow cytometry (reference value: 3.55 %); assay type: functional
[28] = Toxicity in nude mouse allografted with mouse BaF3 cells assessed as damage in heart at 50 mg/kg, po for 7 days by H and E staining based analysis; assay type: organism-based; settings: in vivo, 168 h, time 7 day
NCI-H1975 [29] = assay: Induction of apoptosis in human NCI-H1975 cells assessed as viable cells at 10 nM incubated for 24 hrs by Annexin V-FITC/PI staining based flow cytometry (reference value: 91.38 %); assay type: functional; settings: read-out: Activity
[30] = target: Epidermal growth factor receptor (Homo sapiens, UniProt P00533, C797S/L858R/T790M); assay: Inhibition of EGFR C797S/T790M/L858R mutant (unknown origin)
BaF3 [31] = assay: Antitumor activity against mouse BaF3 cells allografted in nude mouse assessed as reduction of tumor volume at 50 mg/kg, po measured after 2 to 7 days; assay type: functional, organism-based; settings: time 2-7 day
[32] = target: T1, Epidermal growth factor receptor; assay: Inhibition of EGFR in human NCI-H1975 cells assessed as reduction in AKT phosphorylation incubated for 24 hrs by Western blot analysis; assay type: cell-based; settings: dose <= 50.0 nM
[33] = target: Platelet-derived growth factor receptor beta (Homo sapiens) (UniProt P09619); assay: Binding affinity to PDGFR (unknown origin) at 100 nM by kinase profiling analysis
Chain of Platelet-derived growth factor receptor beta (Homo sapiens) (P09619 whole entry): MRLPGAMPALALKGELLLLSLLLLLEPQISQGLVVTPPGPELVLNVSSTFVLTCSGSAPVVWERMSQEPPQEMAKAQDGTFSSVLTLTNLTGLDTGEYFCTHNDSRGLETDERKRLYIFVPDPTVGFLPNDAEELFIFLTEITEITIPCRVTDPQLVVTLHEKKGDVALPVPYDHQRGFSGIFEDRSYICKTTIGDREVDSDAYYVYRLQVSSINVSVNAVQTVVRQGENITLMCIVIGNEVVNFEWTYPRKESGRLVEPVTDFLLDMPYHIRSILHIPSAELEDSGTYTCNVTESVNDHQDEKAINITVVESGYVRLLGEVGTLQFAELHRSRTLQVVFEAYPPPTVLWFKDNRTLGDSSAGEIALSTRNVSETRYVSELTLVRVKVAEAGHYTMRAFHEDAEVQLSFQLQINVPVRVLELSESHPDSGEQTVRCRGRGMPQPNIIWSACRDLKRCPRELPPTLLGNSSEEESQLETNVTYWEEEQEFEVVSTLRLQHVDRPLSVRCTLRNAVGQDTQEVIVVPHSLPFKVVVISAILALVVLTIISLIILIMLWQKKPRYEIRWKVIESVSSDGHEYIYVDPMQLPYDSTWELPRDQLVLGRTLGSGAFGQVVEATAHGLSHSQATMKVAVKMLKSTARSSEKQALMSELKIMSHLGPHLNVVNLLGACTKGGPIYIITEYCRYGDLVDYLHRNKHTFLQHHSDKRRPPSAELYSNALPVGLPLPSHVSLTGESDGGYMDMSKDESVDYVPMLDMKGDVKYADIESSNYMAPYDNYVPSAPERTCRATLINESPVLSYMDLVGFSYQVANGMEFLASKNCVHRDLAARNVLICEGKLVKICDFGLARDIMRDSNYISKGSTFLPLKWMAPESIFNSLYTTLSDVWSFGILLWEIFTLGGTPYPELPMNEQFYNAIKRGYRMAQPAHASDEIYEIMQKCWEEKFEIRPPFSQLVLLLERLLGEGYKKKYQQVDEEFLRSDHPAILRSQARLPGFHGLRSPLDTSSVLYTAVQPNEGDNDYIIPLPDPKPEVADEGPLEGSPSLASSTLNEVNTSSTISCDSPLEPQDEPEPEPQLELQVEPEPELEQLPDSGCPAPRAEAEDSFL

BaF3 [34] = assay: Inhibition of colony formation in mouse BaF3 cells harboring EGFR L858R/T790M/C797S mutant at 5 to 10 nM by crystal violet staining based analysis; assay type: functional, cell-based; settings: dose 5-10 nM
[35] = Cytotoxicity against human L02 cells; assay type: toxicity, cell-based
NCI-H1975 [36] = assay: Inhibition of cell invasion in human NCI-H1975 cells by transwell assay; assay type: functional, cell-based
[37] = Toxicity in nude mouse allografted with mouse BaF3 cells assessed as damage in kidney at 50 mg/kg, po for 7 days by H and E staining based analysis; assay type: organism-based; settings: in vivo, 168 h, time 7 day
BaF3 [38] = assay: Inhibition of cell invasion in mouse BaF3 cells harboring EGFR L858R/T790M/C797S mutant by transwell assay; assay type: functional, cell-based

IC50 (BaF3 [2]): 11.2 nM | IC50 [3]: 4.76 nM | inhibition [11]: Active | IC50 [15]: 70.7 nM | IC50 [21]: 0.42 nM | IC50 (BaF3 [25]): 4 nM | Activity [26]: Active | Activity (Homo sapiens): Active | IC50 [30]: 0.61 nM | inhibition [32]: Dose-Dependent Effect | Activity [33]: Active
SMILES: CN1CCCN(c2ccc(Nc3ncc(Br)c(Nc4ccccc4NS(=O)(=O)C4CC4)n3)cc2)CC1
Activity (BaF3 [1]): 69.42% | inhibition (BaF3 [4]): Active | Activity [5]: Non-Toxic | Activity (BaF3 [6]): Active | Activity (NCI-H1975 [7]): 13.31% | Activity [8]: Non-Toxic | Activity [9]: Non-Toxic | Activity [10]: Non-Toxic | Activity [12]: Non-Toxic | Activity (NCI-H1975 [13]): 2.98% | inhibition (NCI-H1975 [14]): Active | Activity (BaF3 [16]): Active | Activity (BaF3 [17]): Active | Activity (BaF3 [18]): Active | Activity [19]: Non-Toxic | IC50 [20]: 2520 nM | inhibition (NCI-H1975 [22]): Active | inhibition (BaF3 [23]): Dose-Dependent Effect | Activity (BaF3 [24]): 0.48% | Activity (NCI-H1975 [27]): 6.42% | Activity [28]: Non-Toxic | viability at 0.01 µM (NCI-H1975 [29]): 77.3% | Activity (BaF3 [31]): Active | inhibition (BaF3 [34]): Active | IC50 [35]: 4.35 µM | inhibition (NCI-H1975 [36]): Active | Activity [37]: Non-Toxic | inhibition (BaF3 [38]): Active
